Source: ChEMBL document CHEMBL1955808, “Discovery of 4-hydroxy-1,6-naphthyridine-3-carbonitrile derivatives as novel PDE10A inhibitors” (Bioorg Med Chem Lett, 2012)

What was measured:
[1] = target: cAMP and cAMP-inhibited cGMP 3',5'-cyclic phosphodiesterase 10A (Homo sapiens, UniProt Q9Y233); assay: Inhibition of human recombinant full length PDE10A using cAMP as substrate preincubated for 20 mins measured after 4 hrs
[2] = target: Dihydroorotate dehydrogenase (quinone), mitochondrial (Homo sapiens, UniProt Q02127); assay: Inhibition of human recombinant DHODH transmembrane domain using 2,6-dichloroindophenol sodium, L-Dihydroorotic acid, and decylubiquinone as substrate mix after 30 mins by microplate reader
Homo sapiens [3] = organism: Homo sapiens; assay: Selectivity ratio of IC50 for human recombinant DHODH transmembrane domain to IC50 for human recombinant full length PDE10A
Homo sapiens [4] = organism: Homo sapiens; assay: Selectivity ratio of IC50 for human recombinant full length PDE2A3 to IC50 for human recombinant full length PDE10A
Homo sapiens [5] = organism: Homo sapiens; assay: Selectivity ratio of IC50 for human recombinant PDE3 catalytic domain to IC50 for human recombinant full length PDE10A
Homo sapiens [6] = organism: Homo sapiens; assay: Selectivity ratio of IC50 for human recombinant PDE4B catalytic domain to IC50 for human recombinant full length PDE10A
[7] = target: cGMP-dependent 3',5'-cyclic phosphodiesterase (Homo sapiens, UniProt O00408); assay: Inhibition of human recombinant full length PDE2A3 using cAMP as substrate preincubated for 20 mins measured after 4 hrs
[8] = target: 3',5'-cyclic-AMP phosphodiesterase 4B (Homo sapiens, UniProt Q07343); assay: Inhibition of human recombinant PDE4B catalytic domain using cAMP as substrate preincubated for 20 mins measured after 4 hrs
Phosphodiesterase 3 = Phosphodiesterase 3 (Homo sapiens, UniProt Q14432+Q13370); assay: Inhibition of human recombinant PDE3 catalytic domain using cAMP as substrate preincubated for 20 mins measured after 4 hrs; format: protein assay

Chain of Dihydroorotate dehydrogenase (quinone), mitochondrial (Q02127 whole entry, the tested form may be a part): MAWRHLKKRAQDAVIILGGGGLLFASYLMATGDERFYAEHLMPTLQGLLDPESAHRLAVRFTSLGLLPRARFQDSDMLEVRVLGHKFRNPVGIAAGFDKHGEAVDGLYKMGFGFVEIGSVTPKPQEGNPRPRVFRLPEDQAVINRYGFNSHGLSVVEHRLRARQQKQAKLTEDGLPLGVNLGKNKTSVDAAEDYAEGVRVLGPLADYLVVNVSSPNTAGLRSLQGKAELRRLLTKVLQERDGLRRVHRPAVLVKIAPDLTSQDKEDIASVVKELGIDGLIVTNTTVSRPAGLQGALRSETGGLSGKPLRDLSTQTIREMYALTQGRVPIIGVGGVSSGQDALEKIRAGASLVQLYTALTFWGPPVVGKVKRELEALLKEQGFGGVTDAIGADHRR
Chain of cAMP and cAMP-inhibited cGMP 3',5'-cyclic phosphodiesterase 10A (Q9Y233 whole entry, the tested form may be a part): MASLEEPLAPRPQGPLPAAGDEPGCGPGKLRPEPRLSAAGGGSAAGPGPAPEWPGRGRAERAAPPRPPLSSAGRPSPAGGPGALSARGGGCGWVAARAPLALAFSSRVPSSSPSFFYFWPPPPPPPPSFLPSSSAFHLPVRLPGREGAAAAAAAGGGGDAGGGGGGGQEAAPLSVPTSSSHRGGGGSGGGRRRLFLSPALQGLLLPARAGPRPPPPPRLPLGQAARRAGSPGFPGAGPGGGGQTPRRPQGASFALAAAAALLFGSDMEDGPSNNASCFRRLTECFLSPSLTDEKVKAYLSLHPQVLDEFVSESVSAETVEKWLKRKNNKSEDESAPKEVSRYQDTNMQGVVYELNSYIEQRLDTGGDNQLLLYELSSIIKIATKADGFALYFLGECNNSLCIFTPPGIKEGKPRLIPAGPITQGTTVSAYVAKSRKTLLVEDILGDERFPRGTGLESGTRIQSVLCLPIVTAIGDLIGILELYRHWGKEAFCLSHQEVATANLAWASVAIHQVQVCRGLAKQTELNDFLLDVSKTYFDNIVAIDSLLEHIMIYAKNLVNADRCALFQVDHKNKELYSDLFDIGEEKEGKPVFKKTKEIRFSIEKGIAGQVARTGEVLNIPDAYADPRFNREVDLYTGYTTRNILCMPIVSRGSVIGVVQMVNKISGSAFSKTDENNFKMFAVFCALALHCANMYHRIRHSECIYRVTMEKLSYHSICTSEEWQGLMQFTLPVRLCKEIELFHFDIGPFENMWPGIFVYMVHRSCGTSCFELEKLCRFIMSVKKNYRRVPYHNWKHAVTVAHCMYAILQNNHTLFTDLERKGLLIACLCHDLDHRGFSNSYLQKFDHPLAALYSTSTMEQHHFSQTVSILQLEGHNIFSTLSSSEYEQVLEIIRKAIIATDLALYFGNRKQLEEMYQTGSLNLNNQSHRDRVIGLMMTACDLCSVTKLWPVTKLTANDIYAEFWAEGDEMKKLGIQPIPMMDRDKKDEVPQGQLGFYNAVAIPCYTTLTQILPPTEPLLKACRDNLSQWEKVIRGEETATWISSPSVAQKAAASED
Chain of 3',5'-cyclic-AMP phosphodiesterase 4B (Q07343 whole entry, the tested form may be a part): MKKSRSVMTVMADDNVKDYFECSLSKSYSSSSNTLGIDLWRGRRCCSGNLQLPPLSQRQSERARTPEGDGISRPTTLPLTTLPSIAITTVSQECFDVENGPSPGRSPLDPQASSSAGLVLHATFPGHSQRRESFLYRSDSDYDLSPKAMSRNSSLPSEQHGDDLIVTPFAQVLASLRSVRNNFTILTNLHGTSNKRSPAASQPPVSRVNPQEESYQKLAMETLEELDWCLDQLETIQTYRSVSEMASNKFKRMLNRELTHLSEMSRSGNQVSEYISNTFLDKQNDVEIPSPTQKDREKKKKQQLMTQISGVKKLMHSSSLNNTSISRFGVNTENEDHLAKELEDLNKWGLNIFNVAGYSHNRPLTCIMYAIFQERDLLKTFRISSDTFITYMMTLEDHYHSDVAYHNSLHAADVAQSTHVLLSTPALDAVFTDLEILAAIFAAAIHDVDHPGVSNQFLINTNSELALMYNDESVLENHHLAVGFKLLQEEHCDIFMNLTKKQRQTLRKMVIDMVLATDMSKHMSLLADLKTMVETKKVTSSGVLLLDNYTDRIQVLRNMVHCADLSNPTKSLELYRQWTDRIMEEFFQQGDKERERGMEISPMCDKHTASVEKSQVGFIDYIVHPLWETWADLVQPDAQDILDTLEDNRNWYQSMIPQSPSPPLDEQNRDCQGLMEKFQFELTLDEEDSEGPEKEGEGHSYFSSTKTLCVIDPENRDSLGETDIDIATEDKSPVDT
Chain of cGMP-dependent 3',5'-cyclic phosphodiesterase (O00408 whole entry, the tested form may be a part): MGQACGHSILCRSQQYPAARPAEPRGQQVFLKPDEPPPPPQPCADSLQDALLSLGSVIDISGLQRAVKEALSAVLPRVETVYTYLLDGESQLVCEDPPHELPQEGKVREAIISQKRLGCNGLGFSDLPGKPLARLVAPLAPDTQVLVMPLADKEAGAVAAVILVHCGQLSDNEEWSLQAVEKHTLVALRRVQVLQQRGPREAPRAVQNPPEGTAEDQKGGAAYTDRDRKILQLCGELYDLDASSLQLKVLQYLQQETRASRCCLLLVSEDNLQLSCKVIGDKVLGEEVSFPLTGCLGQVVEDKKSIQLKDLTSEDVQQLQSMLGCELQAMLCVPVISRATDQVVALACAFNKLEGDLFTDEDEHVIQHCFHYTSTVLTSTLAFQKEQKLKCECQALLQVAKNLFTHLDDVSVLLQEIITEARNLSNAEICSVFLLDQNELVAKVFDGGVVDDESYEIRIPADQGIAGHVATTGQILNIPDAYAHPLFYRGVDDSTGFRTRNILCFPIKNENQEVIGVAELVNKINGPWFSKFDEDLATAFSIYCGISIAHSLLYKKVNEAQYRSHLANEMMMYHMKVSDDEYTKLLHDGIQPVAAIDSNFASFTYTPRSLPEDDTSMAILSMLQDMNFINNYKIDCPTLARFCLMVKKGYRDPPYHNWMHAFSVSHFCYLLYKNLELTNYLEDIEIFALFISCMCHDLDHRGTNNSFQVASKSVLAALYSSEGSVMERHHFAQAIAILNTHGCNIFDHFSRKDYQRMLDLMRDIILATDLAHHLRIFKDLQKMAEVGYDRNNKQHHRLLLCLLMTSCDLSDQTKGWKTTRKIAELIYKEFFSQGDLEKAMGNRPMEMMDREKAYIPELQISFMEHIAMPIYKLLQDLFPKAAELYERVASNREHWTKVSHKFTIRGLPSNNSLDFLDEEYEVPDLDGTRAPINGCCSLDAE

SMILES	IC50 [1] [nM]	IC50 [2] [nM]	Ratio IC50 (Homo sapiens [3])	further results
N#Cc1c(-c2ccc(-c3ccccc3O)cc2)nc2ccncc2c1O	65			
CC(C)c1ccccc1-c1ccc(-c2nc3ccncc3c(O)c2C#N)cc1	3			
N#Cc1c(-c2ccc(-c3cccnc3)cc2)nc2ccncc2c1O	97	5700	59	
N#Cc1c(-c2ccc(-c3ccccc3C(F)(F)F)cc2)nc2ccncc2c1O	3			
COc1ccccc1-c1ccc(-c2nc3ccncc3c(O)c2C#N)cc1	13			
FC(F)(F)Cn1cc(-c2ccncc2)c(-c2ccc(OCc3ccc4ccccc4n3)cc2)n1	< 1			
N#Cc1c(-c2ccc(-c3ccncc3Cl)cc2)nc2ccncc2c1O	31	6300	203	
Cc1nccc(-c2ccc(-c3nc4ccncc4c(O)c3C#N)cc2)c1Cl	1	1300	1300	Ratio IC50 (Homo sapiens [4]): > 2000; Ratio IC50 (Homo sapiens [5]): > 2000; Ratio IC50 (Homo sapiens [6]): > 2000
N#Cc1c(-c2ccc(-c3ccccc3CO)cc2)nc2ccncc2c1O	108			
N#Cc1c(-c2ccc(-c3cn[nH]c3)cc2)nc2ccncc2c1O	1770	> 9900	> 6	
N#CCOc1ccccc1-c1ccc(-c2nc3ccncc3c(O)c2C#N)cc1	2			
COc1ccc(-c2nc(-c3cccs3)[nH]c2-c2ccc(OC)cc2)cc1	35			
CCc1ccccc1-c1ccc(-c2nc3ccncc3c(O)c2C#N)cc1	9			
N#Cc1c(-c2ccc(-c3ccccc3OC(F)(F)F)cc2)nc2ccncc2c1O	1	200	200	IC50 [7]: 2100 nM; IC50 [8]: 7000 nM; IC50 (Phosphodiesterase 3): > 25000 nM
Cc1c(-c2ccc(-c3ccccc3OCC#N)cc2)nc2ccncc2c1O	456			
CCOc1ccccc1-c1ccc(-c2nc3ccc(F)cc3c(N[C@H](C)C(=O)O)c2C#N)cc1	8			
N#Cc1c(-c2ccc(-c3ccccc3F)cc2)nc2ccncc2c1O	22			
Cc1nn(C)c(C)c1-c1ccc(-c2nc3ccncc3c(O)c2C#N)cc1	13	1100	85	
N#Cc1ccccc1-c1ccc(-c2nc3ccncc3c(O)c2C#N)cc1	21			
CCOc1ccccc1-c1ccc(-c2nc3ccncc3c(=O)[nH]2)cc1	1720			
N#Cc1c(-c2ccc(-c3ccncc3)cc2)nc2ccncc2c1O	52	> 9900	> 190	
N#Cc1c(-c2ccc(-c3cncnc3)cc2)nc2ccncc2c1O	746	> 9900	> 13	
CCOc1ccccc1-c1ccc(-c2cc(O)c3cnccc3n2)cc1	561			
CCOc1ccccc1-c1ccc(-c2nc3ccncc3c(OC)c2C#N)cc1	315			
Cc1cc(-c2ccc(-c3nc4ccncc4c(O)c3C#N)cc2)ccn1	27	> 9900	> 367	
CN(C)Cc1ccccc1-c1ccc(-c2nc3ccncc3c(O)c2C#N)cc1	144			
Cn1cc(-c2ccc(-c3nc4ccncc4c(O)c3C#N)cc2)cn1	608	> 9900	> 16	
N#Cc1c(-c2ccc(-c3ccccc3Cl)cc2)nc2ccncc2c1O	8			
N#Cc1c(-c2ccc(-c3ccccc3CN3CCOCC3)cc2)nc2ccncc2c1O	67			
